The nature of series [1]: Compatibility with acrylic urethane Component I (polyol component of two-component clearcoat). As to conditions: for Compatibility in fully formulated coating: after addition of DESMODUR N-3390 and 17 parts solvent mixture. The class given is physicochemical. The source says: Compound E was again compared against Compound B, this time for compatibility in the following resin formulation which is the polyol component of a typical two-component acrylic urethane clearcoat formulation:
100 parts Acrylic Resin—JONCRYL® CDX-588 (70% Solids) (S.C. Johnson & Son, Inc., Racine, Wis.
5 parts—1 part Dibutyltin Dilaurate (T-12, Air Products, Allentown, Pa.)
45 parts Solvent Mixture (1:1:1 xylenes:MAK:PM Acetate)
1 part Hindered Amine Light Stabilizer (SANDUVOR® S-3055, Clariant Corp., Charlotte, N.C.).

Series [2] in a line: Solubility in solvent mixture (1:1:1 xylenes:MAK:PM acetate). It is filed as physicochemical. The text has this:
Compound E (the disubstituted amide) was compared against Compound B (the monosubstituted amide) for solubility in a 1:1:1 mixture of xylenes:methyl amyl ketone (MAK):propylene glycol methyl ether acetate (PM acetate), which is a typical coatings solvent mixture.

The nature of series [3]: QUV accelerated weathering (UVB-313 bulbs) of acrylic urethane clear coat. As to conditions: Example 10. The source says: Compounds D and E were formulated in clear coatings which were applied to panels for accelerated weathering testing as follows. Compound D or E (1% or 2% based on total resin solids) and/or SANDUVOR® S-3055 HALS-type stabilizer (1% based on total resin solids) were predissolved in the solvent mixture (to a 5-10% solids level) and added to the clear acrylic urethane formulation given in Table 3 below. Components I and II were mixed just before use. Cold roll steel panels measuring 4″×12″ and precoated with an electro-coat primer ED505A and a white polyester acrylic melamine base-coat #542AB839, obtained from ACT Laboratories, Inc. (Hillsdale, Mich.) were coated with the clear coating formulations of Table 3. The draw-down technique, using WC-60 WireCators™ (Leneta Co., Hohokus, N.J.), was used to apply the clear coat to the pre-coated panels. The clear coats were allowed to flash for 10 min at ambient temperature and cured for 30 min at 135° C.
Accelerated weathering was carried out on the clear coating formulations using a QUV device equipped with UVB-313 fluorescent bulbs. […] Specular properties such as gloss ([…], ASTMD523) and distinctness of image (“DOI”) (Dorigon Meter D47R-6FT, Hunter Associate Laboratory) and yellowing (“Delta b”) were measured as a function of weathering time. […]

The nature of series [4]: Bonding/migration in acrylic/melamine clearcoat on RIM substrate, microtome UV depth profile at 340 nm. Conditions: 3% on total resin solids, cure 30 min at 135° C. The protocol:
Compound E was investigated to determine whether it forms a chemical bond with the acrylic/melamine resin matrix during curing. For this purpose, it was added to a clearcoat formulation and coated onto a plastic substrate, as described below. Non-bondable UV absorbers readily migrate from clearcoats into plastic substrates upon curing the coating. An absorber which bonds to the matrix should not migrate into the plastic substrate to any significant extent.
The acrylic/melamine resin formulation utilized was as follows: […]
40.6 g JONCRYL® 510 acrylic resin (S.C. Johnson, Inc. Racine, Wis.)
17.5 g CYMEL® 303 crosslinker (Cytec Industries, Inc., West Paterson, N.J.)
0.52 g CYCAT® 4040 catalyst (Cytec Industries, Inc., West Paterson, N.J.)
0.50 g DC 57 flow control agent […]
After cure, the coating and part of the substrate were microtomed into 10 μm thick slices parallel to the coating surface. […] Each microtomed slice was mounted between two microscope slides and its UV absorption spectrum measured using a Perkin-Elmer Lambda 2 spectrophotometer. The absorbance per micrometer sample thickness was determined at the prominent 340 nm absorption band intrinsic to this UVA.
The results of the UV analysis were plotted as a function of depth. […] By measuring the area under the curve, the quantity of Compound E remaining in the coatings and the fraction that migrated into the substrates were estimated. […]

[5] abbreviates: 1 wt % on total resin solids, 5° C.
[6] abbreviates: 1 wt % on total resin solids, 23° C.
The mark [7] stands for this setting: 1 wt % on total resin solids, 60° C.

Consider `Cc1ccc(-c2nc(-c3ccc(C)cc3C)nc(-c3ccc(OCC(=O)NCCO)cc3O)n2)c(C)c1` [Compound B, 4-[4,6-Bis(2′4′-dimethylphenyl)-1,3,5-triazin-2-yl]-3-hydroxyphenoxyacetic acid, N-(2-hydroxyethyl)amide, reference compound], for which the Compatibility entry is reported as “not compatible” in series [1] (setting [5]); “No” in series [1] (1 wt % on total resin solids, 5° C., listed as CEX1 (B)); “not compatible” in series [1] (setting [6]); “No” in series [1] (1 wt % on total resin solids, 23° C., listed as CEX1 (B)); “not compatible” in series [1] (setting [7]); “No” in series [1] (1 wt % on total resin solids, 60° C., listed as CEX1 (B)). Moreover, the “Compatibility in fully formulated coating” value in series [1] is listed as “did not result in the dissolution”. Also, the Solubility result in series [2] (5 wt %, 5° C.) is given as “No”; in series [2] (5 wt %, 23° C.) it was “No”; in series [2] (5 wt %, 50° C.) it was “did not dissolve”; in series [2] (5 wt %, 50° C., listed as CEX1 (B)) it was “No”.
As to `CCCCN(CCO)C(=O)COc1ccc(-c2nc(-c3ccc(C)cc3C)nc(-c3ccc(C)cc3C)n2)c(O)c1` [Compound E, 4-[4,6-Bis(2′4′-dimethylphenyl)-1,3,5-triazin-2-yl]-3-hydroxyphenoxyacetic acid, N-(n-butyl)-N-(2-hydroxyethyl)amide], the Compatibility result in series [1] (setting [5]) was “Yes”; in series [1] (setting [6]) it was “Yes”; in series [1] (setting [7]), “Yes”; in series [1] (2 wt % on total resin solids, 5° C.), “Yes”; in series [1] (2 wt % on total resin solids, 23° C.), “Yes”; in series [1] (2 wt % on total resin solids, 60° C.), “Yes”. Besides, the “Compatibility with the resin component” value in series [1] (5° C., concentration not given) is “compatible”. For the same compound, in series [1], the “Compatibility in fully formulated coating” value was “nor did it adversely affect the compatibility”. Also, the Solubility result in series [2] (5 wt %, 5° C.) is on record as “Yes”; in series [2] (5 wt %, 23° C.), “Yes”; in series [2] (5 wt %, 50° C.), “Yes”; in series [2] (10 wt %, 5° C.) it was “did not crystallize out of solution”; in series [2] (10 wt %, 5° C., listed as EX1 (E)), “Yes”; in series [2] (10 wt %, 23° C.) it was “Yes”. Further, in series [2] (10 wt %, 50° C.), the Solubility result is given as “Yes”. Moreover, in series [2] (10 wt %, temperature not stated), the “Dissolution in the solvent mixture” value is recorded as “fully dissolved”. In addition, the “Lifetime of coating compositions (percent gloss retention, percent DOI retention, delta b) compared to the unstabilized composition” value in series [3] is recorded as “extend the lifetime”. The “Fraction of added compound remaining in the coating” value in series [4] is recorded as “about 95%”.

(Values after patent US6365652B2, “Trisaryl-1,3,5-triazine ultraviolet light absorbers” (Ciba Specialty Chemicals Corporation, priority 1997, dated 2002).)
